Data published in US4190670A, “Prostaglandin derivatives” (priority 1974, dated 1980).
Like-named read-outs stand apart in the source and are kept apart here.

Key:
[1] = test system: duodenum (intestinal motility); assay: Guinea-pig multiparameter test: intestinal contractions; assay type: in vivo; conditions: anaesthetized guinea-pig
Experimental: (§1) The selective activity of the hydroxy-prostaglandin derivatives of the present invention was established by a multiparameter guinea-pig test. In this test guinea-pigs weighing 600-900 g are anaesthetized with sodium pentobarbitone (45 mg/kg, i.p.). Supplementary doses of sodium pentobarbitone (3-6 mg i.v.) are administered when required (i.e. when spontaneous respiration appears). The jugular vein is cannulated for the administration of drugs. The guinea-pig is artificially respired with N2 O/O2 (7/3), using a Keuskamp respirator.
(§2) Then the following functions are measured:
c. Measurement of intestinal motility.
A balloon, containing distilled water and connected to a pressure transducer, is inserted in the duodenum of the guinea-pig. Care is taken on ligaturing the cannula to avoid stricture of the duodenum. The balloon is at a pressure of 10-20 mm Hg.

[2] = test system: bronchioles (bronchial resistance); assay: Guinea-pig multiparameter test: bronchial resistance; assay type: in vivo; conditions: anaesthetized guinea-pig
Experimental: as §1, §2
b. Bronchial resistance and tracheal segment pressure.
A cannula is inserted into the trachea as close as possible to the thorax. The guinea-pig is artificially ventilated at 55 strokes/min. The pressure changes, assumed to be due to changes caused by the bronchioles, are measured by a pressure transducer attached to a side arm of the cannula. The trachea is occluded at its lower end with a blind-ended cannula, while a cannula is further introduced into the trachea as close as possible to the larynx. The system is completely filled with saline, and connected to a very sensitive pressure transducer. Changes in the pressure measured (cm H2 O) are assumed to reflect changes in the tone of the smooth muscle of the trachea. The trachea segment cannula is inserted with extreme caution so as to avoid disruption of the nerve or blood supply to the segment.

[3] = test system: uterus (uterine motility); assay: Guinea-pig multiparameter test: uterine contractions; assay type: in vivo; conditions: anaesthetized guinea-pig
Experimental: as §1, §2
d. Measurement of uterine motility.
A polyethylene cannula is inserted into the uterus via the vagina to a depth of 2.5 cm. This is then tied off with a ligature around the cervix. The cannula is connected to a pressure transducer, the whole system being filled with liquid paraffin at a pressure of 10-20 mm Hg.

[4] = test system: Histamine-induced broncho-constriction; assay: Antagonism of histamine-induced broncho-constriction (guinea-pig); assay type: in vivo; conditions: Cavia porcellus, iv, read-out: % INHIBITION (± S.D.) of histamine-induced broncho-constriction
Experimental: The activity of the 18.xi.-, 19.xi.- and 20.xi.-hydroxy-prostaglandin derivatives on the respiratory tract misculature was further confirmed by determination of their ability to antagonize histamine-induced bronchoconstriction. This test is a modification of the guinea-pig multiparameter test, cannulations being carried out only for recording blood pressure, tracheal segment pressure and bronchial resistance.
Histamine was injected i.v. in a dose of 4 μg (as base) at regular intervals throughout the experiment. If extra doses of sodium pentobarbitone had to be administered during the course of the experiment to suppress voluntary respiration, the interval to the next dose of histamine was lengthened.
Test compounds were injected i.v. one minute before histamine in volumes less than 0.5 ml. The substances were washed in with 0.3 ml sterile saline. The lungs were artificially over-ventilated one minute prior to injection of the test compounds.
The ability of the compounds to counteract histamine-induced bronchoconstriction and the increase in tracheal segment pressure was determined using two dose levels--a low one and a high one.

rabbit eye = assay: Irritation following topical application in the rabbit eye (Draize scoring method); assay type: in vivo
Text: This effect can be studied using the Draize scoring method for determining irritation following topical application in the rabbit eye.

[5] = cited from earlier work

SMILES: CCC(O)CC[C@H](O)/C=C/[C@H]1CCC(=O)[C@@H]1CCCCCCC(=O)O (relative stereo) [9-keto-15α,18.xi.-dihydroxy-prost-13(t)-enoic acid]
- INTESTINAL contractions ([1]; dose 100 μg): 0
- BRONCHIAL resistance ([2]; dose 100 μg): 0
- UTERINE contractions ([3]; dose 100 μg): 0
- inhibition in vivo at 0.001 mg [4]: 25.9%
- inhibition in vivo at 0.1 mg [4]: ~80%

SMILES: CC(O)CCC[C@H](O)/C=C/[C@H]1CCC(=O)[C@@H]1CCCCCCC(=O)O (relative stereo) [9-keto-15α,19.xi.-dihydroxy-prost-13(t)-enoic acid]
- INTESTINAL contractions ([1]; dose 100 μg): 0
- BRONCHIAL resistance ([2]; dose 100 μg): 0
- UTERINE contractions ([3]; dose 100 μg): 0
- inhibition in vivo at 0.001 mg [4]: 23.9%
- inhibition in vivo at 0.1 mg [4]: 88.1%

SMILES: CC(O)CCC[C@@H](O)/C=C/[C@H]1CCC(=O)[C@@H]1CCCCCCC(=O)O (relative stereo) [9-keto-15β,19.xi.-dihydroxy-prost-13(t)-enoic acid]
- inhibition in vivo at 0.5 mg [4]: ~85%

SMILES: CC(O)CCC[C@@H](O)/C=C/[C@H]1CC[C@H](O)[C@@H]1CCCCCCC(=O)O (relative stereo) [9α,15β,19.xi.-trihydroxy-prost-13-(t)-enoic acid]
- inhibition in vivo at 0.5 mg [4]: ~60%

SMILES: CCC(O)CC[C@H](O)/C=C/[C@H]1CC[C@@H](O)[C@@H]1CCCCCCC(=O)O (relative stereo) [9β,15α,18.xi.-trihydroxy-prost-13(t)-enoic acid]
- INTESTINAL contractions ([1]; dose 500 μg): 0
- BRONCHIAL resistance ([2]; dose 500 μg): 0
- UTERINE contractions ([3]; dose 500 μg): 0
- inhibition in vivo at 0.1 mg [4]: 28.1%

SMILES: CC(O)CCC[C@H](O)/C=C/[C@H]1CC[C@@H](O)[C@@H]1CCCCCCC(=O)O (relative stereo) [9β,15α,19.xi.-trihydroxy-prost-13(t)-enoic acid]
- INTESTINAL contractions ([1]; dose 500 μg): 0
- BRONCHIAL resistance ([2]; dose 500 μg): 0
- UTERINE contractions ([3]; dose 500 μg): 0
- inhibition in vivo at 0.1 mg [4]: 62.5%

SMILES: O=C(O)CCCCCC[C@H]1[C@H](O)CC[C@@H]1/C=C/[C@@H](O)CCCCCO (relative stereo) [9β,15α,20-trihydroxy-prost-13(t)-enoic acid]
- INTESTINAL contractions ([1]; dose 500 μg): 0
- BRONCHIAL resistance ([2]; dose 500 μg): 0
- UTERINE contractions ([3]; dose 500 μg): 0
- inhibition in vivo at 0.1 mg [4]: 52.9%

SMILES: CCC(O)CC[C@H](O)/C=C/[C@H]1[C@H](O)CC(=O)[C@@H]1CCCCCCC(=O)O (stereo partly drawn) [9-keto-11α,15α,18.xi.-trihydroxy-prost-13(t)-enoic acid]
- inhibition in vivo at 0.001 mg [4]: ~70%

SMILES: CCC(O)CC[C@H](O)/C=C/[C@H]1[C@H](O)CC(=O)[C@@H]1C/C=C\CCCC(=O)O (stereo partly drawn) [9-keto-11α,15α,18.xi.-trihydroxy-prosta-5(c),13(t)-dienoic acid]
- inhibition in vivo at 0.001 mg [4]: ~35%

SMILES: CC(O)CCC[C@H](O)/C=C/[C@H]1[C@H](O)CC(=O)[C@@H]1CCCCCCC(=O)O (stereo partly drawn) [9-keto-11α,15α,19.xi.-trihydroxy-prost-13(t)-enoic acid]
- inhibition in vivo at 0.001 mg [4]: ~60%

SMILES: CC(O)CCC[C@H](O)/C=C/[C@H]1[C@H](O)CC(=O)[C@@H]1C/C=C\CCCC(=O)O (stereo partly drawn) [9-keto-11α,15α,19.xi.-trihydroxy-prosta-5(c),13(t)-dienoic acid]
- inhibition in vivo at 0.001 mg [4]: ~70%

SMILES: CCC(O)CC[C@H](O)/C=C/[C@H]1CCC(=O)[C@@H]1C/C=C\CCCC(=O)O (stereo partly drawn) [9-keto-15α,18.xi.-dihydroxy-prosta-5(c),13(t)-dienoic acid]
- inhibition in vivo at 0.001 mg [4]: 45%

SMILES: CC(O)CCC[C@H](O)/C=C/[C@H]1CCC(=O)[C@@H]1C/C=C\CCCC(=O)O (stereo partly drawn) [9-keto-15α,19.xi.-dihydroxy-prosta-5(c),13(t)-dienoic acid]
- inhibition in vivo at 0.001 mg [4]: 50.3%

SMILES: O=C(O)CCC/C=C\C[C@H]1C(=O)CC[C@@H]1/C=C/[C@@H](O)CCCCCO [9-keto-15α,20-dihydroxy-prosta-5(c),13(t)-dienoic acid]
- inhibition in vivo at 0.001 mg [4]: 60.7%

SMILES: CCCCC[C@H](O)/C=C/[C@H]1[C@H](O)CC(=O)[C@@H]1CCCCCCC(=O)O [PGE1, 9-keto-11α,15α-dihydroxy-prost-13(t)-enoic acid, reference compound]
- BRONCHIAL resistance ([2]; dose 5 μg): 0
- UTERINE contractions ([3]; dose 5 μg): 0
- inhibition in vivo at 0.0001 mg ([4]; dose 0.1 μg i.v., one minute before histamine 4 μg i.v.): 27.6%
- inhibition in vivo at 0.001 mg ([4]; dose 1 μg i.v., one minute before histamine 4 μg i.v.): 53.2%
- inhibition in vivo at 0.005 mg ([4]; dose 5.0 μg i.v., one minute before histamine 4 μg i.v.): ~88%
- threshold irritant dose (rabbit eye): 1 μg/eye

SMILES: CCCCC[C@H](O)/C=C/[C@H]1[C@H](O)CC(=O)[C@@H]1C/C=C\CCCC(=O)O [PGE2, 9-keto-11α,15α-dihydroxy-prosta-5(c),13(t)-dienoic acid]
- persistant coughing on aerosol use [5]: persistant coughing
